Among the data in patent US7375226B2, “Bi- and tricyclic substituted phenyl methanones” (Hoffman-La Roche Inc., priority 2004, dated 2008) are IC50 values, retold here.

The target of this test is T1, mGlyT-1b (Mus musculus, UniProt P28571).
T1 construct: host or cells: Flp-in-CHO
T1 sequence (P28571 1-651 isoform P28571-2): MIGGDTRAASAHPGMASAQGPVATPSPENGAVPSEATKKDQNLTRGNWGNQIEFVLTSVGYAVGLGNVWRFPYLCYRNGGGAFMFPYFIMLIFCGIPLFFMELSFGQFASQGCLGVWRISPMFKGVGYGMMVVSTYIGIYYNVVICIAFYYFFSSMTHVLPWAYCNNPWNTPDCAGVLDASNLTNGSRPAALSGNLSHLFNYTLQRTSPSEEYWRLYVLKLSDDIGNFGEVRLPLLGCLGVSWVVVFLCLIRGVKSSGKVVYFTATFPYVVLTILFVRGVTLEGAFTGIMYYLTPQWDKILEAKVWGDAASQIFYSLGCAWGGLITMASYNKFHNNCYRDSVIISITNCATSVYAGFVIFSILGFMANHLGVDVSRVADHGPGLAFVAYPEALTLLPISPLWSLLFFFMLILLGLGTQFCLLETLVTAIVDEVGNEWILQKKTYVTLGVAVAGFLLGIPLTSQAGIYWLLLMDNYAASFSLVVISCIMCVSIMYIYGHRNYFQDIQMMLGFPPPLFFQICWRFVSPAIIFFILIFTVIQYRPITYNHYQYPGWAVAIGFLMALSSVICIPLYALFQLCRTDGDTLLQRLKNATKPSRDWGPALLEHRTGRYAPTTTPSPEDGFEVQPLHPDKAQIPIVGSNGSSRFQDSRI
Nature of the test: Glycine uptake inhibition assay (mGlyT-1b), [3H]-glycine uptake in Flp-in-CHO cells. As to conditions: Flp-in-CHO cells stably transfected with mGlyT1b cDNA; [3H]-glycine 60 nM and 25 μM non-radioactive glycine; read-out: IC50 (μM) at GlyT-1. The test is classed as cell-based. As for the experimental part:
• DMEM complete medium: Nutrient mixture F-12 (Gibco Life-technologies), fetal bovine serum (FBS) 5%, (Gibco life technologies), Penicillin/Streptomycin 1% (Gibco life technologies), Hygromycin 0.6 mg/ml (Gibco life technologies), Glutamine 1 mM Gibco life technologies). • Uptake buffer (UB): 150 mM NaCl, 10 mM Hepes-Tris, pH 7.4, 1 mM CaCl2, 2.5 mM KCl, 2.5 mM MgSO4, 10 mM (+) D-glucose. • Flp-in™-CHO (Invitrogen Cat n° R758-07)cells stably transfected with mGlyT1b cDNA. • Glycine uptake inhibition assay (mGlyT-1b)
On day 1 mammalian cells, (Flp-in™-CHO), transfected with mGlyT-1b cDNA, were plated at the density of 40,000 cells/well in complete F-12 medium, without hygromycin in 96-well culture plates. On day 2, the medium was aspirated and the cells were washed twice with uptake buffer (UB). The cells were then incubated for 20 min at 22° C. with either (i) no potential competitor, (ii) 10 mM non-radioactive glycine, (iii) a concentration of a potential inhibitor. A range of concentration of the potential inhibitor was used to generate data for calculating the concentration of inhibitor resulting in 50% of the effect (e.g. IC50, the concentration of the competitor inhibiting glycine uptake of 50%). A solution was then immediately added containing [^3H]-glycine 60 nM (11-16 Ci/mmol) and 25 μM non-radioactive glycine. The plates were incubated with gentle shaking and the reaction was stopped by aspiration of the mixture and washing (three times) with ice-cold UB. The cells were lysed with scintillation liquid, shaken 3 hours and the radioactivity in the cells was counted using a scintillation counter.

On to `CS(=O)(=O)c1ccc(N2CCOCC2)c(C(=O)N2CCc3c(sc4ccc(Cl)cc34)C2)c1` [Example 2, (6-Chloro-3,4-dihydro-1H-benzo[4,5]thieno[2,3-c]pyridin-2-yl)-(5-methanesulfonyl-2-morpholin-4-yl-phenyl)-methanone], for which the IC50 came to 0.187 µM.
The result for `CC(C)COc1ccc(S(C)(=O)=O)cc1C(=O)N1CCc2nc(-c3cccs3)sc2C1` [Example 5, (2-Isobutoxy-5-methanesulfonyl-phenyl)-(2-thiophen-2-yl-6,7-dihydro-4H-thiazolo[5,4-c]pyridin-5-yl)-methanone] reads 0.098 µM; that for `CS(=O)(=O)c1ccc(OCC2CC2)c(C(=O)N2CCc3c(sc4ccc(Cl)cc34)C2)c1` [Example 20, (6-Chloro-3,4-dihydro-1H-benzo[4,5]thieno[2,3-c]pyridin-2-yl)-(2-cyclopropylmethoxy-5-methanesulfonyl-phenyl)-methanone], 0.026 µM; that for `CC(C)Oc1ccc(S(C)(=O)=O)cc1C(=O)N1CCn2c(cc3cc(OC(F)(F)F)ccc32)C1` [Example 11, (2-Isopropoxy-5-methanesulfonyl-phenyl)-(8-trifluoromethoxy-3,4-dihydro-1H-pyrazino[1,2-a]indol-2-yl)-methanone], 0.088 µM.
With `C[C@H](Oc1ccc(S(C)(=O)=O)cc1C(=O)N1CCc2c(sc3ccc(Cl)cc23)C1)C(F)(F)F` [Example 22, (6-Chloro-3,4-dihydro-1H-benzo[4,5]thieno[2,3-c]pyridin-2-yl)-[5-methanesulfonyl-2-((S)-2,2,2-trifluoro-1-methyl-ethoxy)-phenyl]-methanone], the IC50 came to 0.023 µM.
`CC(C)Oc1ccc(S(C)(=O)=O)cc1C(=O)N1CCn2c(cc3ccc(Cl)cc32)C1` [Example 9, (7-Chloro-3,4-dihydro-1H-pyrazino[1,2-a]indol-2-yl)-(2-isopropoxy-5-methanesulfonyl-phenyl)-methanone]: the IC50 amounted to 0.134 µM.
With `CC(C)COc1ccc(S(C)(=O)=O)cc1C(=O)N1CCc2nc(-c3ccc(C(F)(F)F)cc3)sc2C1` [Example 23, (2-Isobutoxy-5-methanesulfonyl-phenyl)-[2-(4-trifluoromethyl-phenyl)-6,7-dihydro-4H-thiazolo[5,4-c]pyridin-5-yl]-methanone], the IC50 is 0.341 µM.
Consider `CC(C)Oc1ccc(S(C)(=O)=O)cc1C(=O)N1CCc2nc(-c3cccs3)sc2C1` [Example 6, (2-Isopropoxy-5-methanesulfonyl-phenyl)-(2-thiophen-2-yl-6,7-dihydro-4H!-thiazolo[5,4-c]pyridin-5-yl)-methanone], for which the IC50 was 0.407 µM.
Consider `CC(C)Oc1ccc(S(C)(=O)=O)cc1C(=O)N1CCN2c3ccc(OC(F)(F)F)cc3CC2C1` (racemic) [Example 14, Rac-(2-Isopropoxy-5-methanesulfonyl-phenyl)-(8-trifluoromethoxy-3,4,10,10a-tetrahydro-1H-pyrazino[1,2-a]indol-2-yl)-methanone], for which the IC50 was found to be 0.154 µM.
The result for `CC(C)Oc1ccc(C#N)cc1C(=O)N1CCc2c(sc3ccc(Cl)cc23)C1` [Example 19, 3-(6-Chloro-3,4-dihydro-1H-benzo[4,5]thieno[2,3-c]pyridine-2-carbonyl)-4-isopropoxy-benzonitrile] reads 0.339 µM.
Regarding `CS(=O)(=O)c1ccc(OC2CCCC2)c(C(=O)N2CCn3c(nc4ccccc43)C2)c1` [Example 15, (2-Cyclopentyloxy-5-methanesulfonyl-phenyl)-(3,4-dihydro-1H-benzo[4,5]imidazo[1,2-a]pyrazin-2-yl)-methanone], the IC50 stood at 0.367 µM.
Turning to `CC(C)Oc1ccc(S(C)(=O)=O)cc1C(=O)N1CCc2c(sc3ccc(Cl)cc23)C1` [Example 1, (6-Chloro-3,4-dihydro-1H-benzo[4,5]thieno[2,3-c]pyridin-2-yl)-(2-isopropoxy-5-methanesulfonyl-phenyl)-methanone], the IC50 turned out to be 0.019 µM.

For orientation: IC50 means the concentration at which inhibition is half-maximal.
